From patent publication US12122750B2, “AT2R antagonists and uses thereof” (Eli Lilly and Company, priority 2022, dated 2024)

Legend:
[1] = molecular target: recombinant human angiotensin-II receptor subtype 2 (hAT2R) (Homo sapiens (Human), UniProt P50052); assay: Competitive radioligand binding assay (SPA), hAT2R HEK293 membranes; conditions: [125I]-Tyr4-Angiotensin-II, read-out: AT2R Ki
Outline: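 SPA competition binding on membranes from HEK293 cells stably transfected with hAT2R (0.25 μg/well, with 0.1 mg/well PVT-WGA beads) in 50 mM Tris-HCl pH 7.5, 150 mM NaCl, 0.1% fatty-acid-free BSA. Ten-point four-fold dilution curves ran from 50 μM top final concentration. Bound radioactivity was counted (CPM) after 10 h at room temperature.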

[2] = molecular target: rAT2R (Rattus norvegicus (Rat), UniProt P35351); assay: Rat binding affinity, competitive radioligand binding assay (SPA), rAT2R HEK293 membranes; conditions: rat AT2R
rAT2R, sequence (P35351 whole entry): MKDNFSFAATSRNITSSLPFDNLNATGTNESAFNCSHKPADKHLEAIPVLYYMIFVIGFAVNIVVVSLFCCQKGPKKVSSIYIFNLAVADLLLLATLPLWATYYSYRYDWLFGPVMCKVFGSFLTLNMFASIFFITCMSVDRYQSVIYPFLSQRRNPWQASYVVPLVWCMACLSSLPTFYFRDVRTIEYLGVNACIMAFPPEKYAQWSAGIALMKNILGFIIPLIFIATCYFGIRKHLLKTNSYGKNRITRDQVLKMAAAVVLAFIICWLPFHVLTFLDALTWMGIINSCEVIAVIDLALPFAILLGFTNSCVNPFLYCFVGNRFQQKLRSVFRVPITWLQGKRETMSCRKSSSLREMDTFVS
Description: Membrane Preparation Protocol (hAT2R HEK293 and rAT2R HEK293)
Receptor Binding Protocol
The assays were performed with a scintillation proximity assay (SPA) method using polyvinyltoluene (PVT) wheat germ agglutinin-coupled SPA beads (Perkin Elmer Cat. #RPNQ0001). Assay buffer containing BSA (50 mM Tris-HCl, pH 7.5, 150 mM NaCl, 0.1% w/v fatty-acid free BSA) was used for preparing radioligand, membrane and SPA bead reagent dilution to working stock concentrations. Reference control and test compounds were diluted to obtain ten-point concentration response curves using a four-fold serial dilution protocol onto assay plates, dispensed acoustically from DMSO stock using automated ECHO instrument technology (Labcyte, Inc.). Concentration response curves were routinely generated with the highest final assay concentration for the reference angiotensin-II control at 50 nM, and the highest final assay concentration for the test compounds at 50 μM. […] The hAT2R membrane was combined with PVT-WGA SPA beads to obtain a final assay concentration of 0.25 μg/well hAT2R membrane+0.1 mg/well PVT-WGA SPA bead. And the hAT1R membrane PVT-WGA SPA bead final concentrations was 0.5 μg/well hAT1R membrane+0.1 mg/well PVT-WGA SPA bead. […] For all assays, radioligand addition was followed by the addition of membrane-SPA bead mixture, i.e., the hAT2R membrane-SPA bead mixture (30 μL), the rAT2R membrane-SPA bead mixture, or the AT1R membrane-SPA bead mixture (30 μL) into the assay plate. All dispensing steps were added using a Multiflo FX (Biotek, Inc.) bulk dispensing instrument. After reagent addition steps, assay plates were sealed, and plate contents mixed for one minute on a benchtop micro-plate shaker. Following a 10-hour incubation at room temperature to allow for bead settling and radioligand binding, bound radioactivity was quantitated using a Microbeta Trilux scintillation counter (Perkin Elmer) and expressed as counts per minute (CPM). The unlabeled angiotensin-II control was included on each plate as an experimental assay reference.
Compounds were tested in a 10-point concentration response curve (CRC) format, with each plate containing the positive control angiotensin-II positive reference compound, and experimental compounds. Maximum binding response (Max) was determined in 32 control wells per plate using assay buffer treatment only, and the minimum binding controls or nonspecific binding response (Min) was also determined in 32 wells per plate by the treatment with 50 nM angiotensin-II. All test sample concentration responses were normalized to the control response and calculated as a percent of the maximal response after correcting for nonspecific binding as shown below: % Specific inhibition=100%−[(CPM−Min)/(Max−Min)×100%]
Percent specific binding (y-axis) was plotted versus the log concentration of compound (x-axis).

recombinant human angiotensin-II receptor subtype 2 (hAT2R), sequence (P50052 whole entry): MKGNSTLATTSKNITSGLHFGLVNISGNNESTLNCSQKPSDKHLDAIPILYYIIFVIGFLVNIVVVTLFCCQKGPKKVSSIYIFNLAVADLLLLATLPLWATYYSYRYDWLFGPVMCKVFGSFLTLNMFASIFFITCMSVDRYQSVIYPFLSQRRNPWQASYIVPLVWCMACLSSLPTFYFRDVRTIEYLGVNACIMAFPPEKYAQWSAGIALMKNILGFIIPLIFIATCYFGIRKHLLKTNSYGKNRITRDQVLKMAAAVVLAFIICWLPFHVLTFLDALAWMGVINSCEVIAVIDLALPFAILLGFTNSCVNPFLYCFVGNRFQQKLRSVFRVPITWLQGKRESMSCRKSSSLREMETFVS

Ki [1] | Ki [2] | SMILES
5.36 nM | 2.19 nM | O=C(N1CCC(CC(=O)N(c2ccccc2)c2ccccc2)(C(=O)O)CC1)N1CCc2ccccc21 [Example 3, 1-(indoline-1-carbonyl)-4-[2-oxo-2-(N-phenylanilino)ethyl]piperidine-4-carboxylic acid]
9.59 nM | 0.614 nM | CN(C(=O)N1CCC(CC(=O)N(c2ccccc2)C(C2CC2)C2CC2)(C(=O)O)CC1)c1ccc(F)cc1 [Example 18, 4-[2-[N-(dicyclopropylmethyl)anilino]-2-oxo-ethyl]-1-[(4-fluorophenyl)-methyl-carbamoyl]piperidine-4-carboxylic acid]
